Test system: MV-4-11 cells
Test: Gene expression microarray analysis (Affymetrix PrimeView) and GSEA
Type: cell-based, human
Set-up: RFU PODN (11730768_x_at) / Fold change /veh PODN (11730768_x_at) / RFU LINC00158 (11744669_a_at) / Fold change /veh LINC00158 (11744669_a_at) / RFU DUSP10 (11751237_a_at) / Fold change /veh DUSP10 (11751237_a_at) / RFU ID3 (11757404_x_at) / Fold change /veh ID3 (11757404_x_at) / RFU PLEKHG5 (11737974_s_at) / Fold change /veh PLEKHG5 (11737974_s_at) / RFU LRRC4B (11730491_at) / Fold change /veh LRRC4B (11730491_at) / RFU GIMAP4 (11747438_a_at) / Fold change /veh GIMAP4 (11747438_a_at) / RFU KRT8 (11758183_x_at) / Fold change /veh KRT8 (11758183_x_at) / RFU CNN1 (11734310_a_at) / Fold change /veh CNN1 (11734310_a_at) / RFU VPS37D (11726825_at) / Fold change /veh VPS37D (11726825_at) / RFU C10orf10 (11716522_x_at) / Fold change /veh C10orf10 (11716522_x_at) / RFU KIR2DL2 /// KIR2DL4 /// KIR2DL5A /// KIR2DL5B /// KIR2DS1 /// KIR2DS2 /// KIR2DS3 /// KIR2DS4 /// KIR3DL3 /// KIR3DL3 /// KIR3DS1 (11738374_at) / Fold change /veh KIR2DL2 /// KIR2DL4 /// KIR2DL5A /// KIR2DL5B /// KIR2DS1 /// KIR2DS2 /// KIR2DS3 /// KIR2DS4 /// KIR3DL3 /// KIR3DL3 /// KIR3DS1 (11738374_at) / RFU C1QL1 (11718748_at) / Fold change /veh C1QL1 (11718748_at) / RFU TMPRSS4 (11747572_a_at) / Fold change /veh TMPRSS4 (11747572_a_at) / RFU HAMP (11756126_x_at) / Fold change /veh HAMP (11756126_x_at) / RFU RNFT2 (11725882_a_at) / Fold change /veh RNFT2 (11725882_a_at) / RFU NR4A2 (11747474_a_at) / Fold change /veh NR4A2 (11747474_a_at) / RFU ABCC12 (11746883_a_at) / Fold change /veh ABCC12 (11746883_a_at) / RFU TMEM136 (11760407_x_at) / Fold change /veh TMEM136 (11760407_x_at) / RFU CLDN22 /// WWC2 (11732394_at) / Fold change /veh CLDN22 /// WWC2 (11732394_at) / RFU HLA-DPB1 (11760878_x_at) / Fold change /veh HLA-DPB1 (11760878_x_at) / RFU SPINT1 (11716480_a_at) / Fold change /veh SPINT1 (11716480_a_at) / RFU GAP43 (11754022_s_at) / Fold change /veh GAP43 (11754022_s_at) / RFU A4GNT (11735810_at) / Fold change /veh A4GNT (11735810_at) / RFU PRB3 (11715151_x_at) / Fold change /veh PRB3 (11715151_x_at) / RFU TUBB4B (11761932_at) / Fold change /veh TUBB4B (11761932_at) / RFU CAPN14 (11732068_a_at) / Fold change /veh CAPN14 (11732068_a_at) / RFU TMCC2 (11721928_a_at) / Fold change /veh TMCC2 (11721928_a_at) / RFU IRGQ (11745062_a_at) / Fold change /veh IRGQ (11745062_a_at) / RFU FAM174B (11720279_a_at) / Fold change /veh FAM174B (11720279_a_at) / RFU TMPRSS4 (11748680_a_at) / Fold change /veh TMPRSS4 (11748680_a_at) / RFU FAM212B (11763350_a_at) / Fold change /veh FAM212B (11763350_a_at) / RFU PLEKHG5 (11743358_a_at) / Fold change /veh PLEKHG5 (11743358_a_at) / RFU ZSCAN30 (11745921_a_at) / Fold change /veh ZSCAN30 (11745921_a_at) / RFU CMKLR1 (11741424_a_at) / Fold change /veh CMKLR1 (11741424_a_at) / RFU LOC101060620 /// MAPK8IP1 (11723275_at) / Fold change /veh LOC101060620 /// MAPK8IP1 (11723275_at) / RFU SPTSSB (11747773_x_at) / Fold change /veh SPTSSB (11747773_x_at) / RFU PRSS12 (11739890_at) / Fold change /veh PRSS12 (11739890_at) / RFU BIN1 (11741810_x_at) / Fold change /veh BIN1 (11741810_x_at) / RFU WNT11 (11732464_a_at) / Fold change /veh WNT11 (11732464_a_at) / RFU C10orf10 (11716521_a_at) / Fold change /veh C10orf10 (11716521_a_at) / RFU C5orf56 (11738089_at) / Fold change /veh C5orf56 (11738089_at) / RFU CYB561 (11721691_x_at) / Fold change /veh CYB561 (11721691_x_at) / RFU ANKRD19P (11752326_a_at) / Fold change /veh ANKRD19P (11752326_a_at) / RFU OR2T12 /// OR2T33 /// OR2T8 (11738714_s_at) / Fold change /veh OR2T12 /// OR2T33 /// OR2T8 (11738714_s_at) / RFU VCAN (11748164_a_at) / Fold change /veh VCAN (11748164_a_at) / RFU JSRP1 (11732532_at) / Fold change /veh JSRP1 (11732532_at) / RFU KRTAP10-11 (11738290_x_at) / Fold change /veh KRTAP10-11 (11738290_x_at) / RFU MYO3A (11730013_a_at) / Fold change /veh MYO3A (11730013_a_at) / RFU EBF3 (11725865_a_at) / Fold change /veh EBF3 (11725865_a_at) / RFU CAMK2N1 (11719241_x_at) / Fold change /veh CAMK2N1 (11719241_x_at) / RFU C5orf56 (11738088_a_at) / Fold change /veh C5orf56 (11738088_a_at) / RFU OLFML3 (11715873_a_at) / Fold change /veh OLFML3 (11715873_a_at) / RFU LOC100653217 /// NTM (11731650_a_at) / Fold change /veh LOC100653217 /// NTM (11731650_a_at) / RFU MAPK11 (11762145_a_at) / Fold change /veh MAPK11 (11762145_a_at) / RFU FIZ1 (11724087_x_at) / Fold change /veh FIZ1 (11724087_x_at) / RFU OASL (11726364_x_at) / Fold change /veh OASL (11726364_x_at) / RFU SOX15 (11748057_x_at) / Fold change /veh SOX15 (11748057_x_at) / RFU CD79A (11719716_a_at) / Fold change /veh CD79A (11719716_a_at) / RFU HIST1H1D (11736915_at) / Fold change /veh HIST1H1D (11736915_at) / RFU CASKIN2 (11723855_a_at) / Fold change /veh CASKIN2 (11723855_a_at) / RFU LOC730098 (11760151_x_at) / Fold change /veh LOC730098 (11760151_x_at) / RFU OR4N2 (11742367_at) / Fold change /veh OR4N2 (11742367_at) / RFU PRRT2 (11749266_a_at) / Fold change /veh PRRT2 (11749266_a_at) / RFU SNX32 (11753110_a_at) / Fold change /veh SNX32 (11753110_a_at) / RFU CDHR5 (11726645_a_at) / Fold change /veh CDHR5 (11726645_a_at) / RFU RCAN1 (11760418_a_at) / Fold change /veh RCAN1 (11760418_a_at) / RFU FAM167A (11723789_a_at) / Fold change /veh FAM167A (11723789_a_at) / RFU FAM26E (11764081_at) / Fold change /veh FAM26E (11764081_at) / RFU ISYNA1 (11749810_s_at) / Fold change /veh ISYNA1 (11749810_s_at) / RFU ACY1 (11761880_at) / Fold change /veh ACY1 (11761880_at) / RFU 11764098_at / Fold change /veh 11764098_at / RFU SAMD14 (11745864_x_at) / Fold change /veh SAMD14 (11745864_x_at) / RFU NPB (11741838_a_at) / Fold change /veh NPB (11741838_a_at) / RFU TMPRSS6 (11731388_a_at) / Fold change /veh TMPRSS6 (11731388_a_at) / RFU KRTAP10-2 (11738614_at) / Fold change /veh KRTAP10-2 (11738614_at) / RFU ARHGAP8 /// PRR5-ARHGAP8 (11727945_x_at) / Fold change /veh ARHGAP8 /// PRR5-ARHGAP8 (11727945_x_at) / RFU KRTAP5-7 /// NADSYN1 (11734609_at) / Fold change /veh KRTAP5-7 /// NADSYN1 (11734609_at) / RFU RASL12 (11751679_a_at) / Fold change /veh RASL12 (11751679_a_at) / RFU CDKN2B (11736163_a_at) / Fold change /veh CDKN2B (11736163_a_at) / RFU PRF1 (11729649_at) / Fold change /veh PRF1 (11729649_at) / RFU, ZNF638 /// ZNF638-IT1 / Fold change vs veh, ZNF638 /// ZNF638-IT1 / RFU, PANK3 / Fold change vs veh, PANK3 / RFU, SH3YL1 / Fold change vs veh, SH3YL1 / RFU, ZEB2 / Fold change vs veh, ZEB2 / RFU, NRIP1 / Fold change vs veh, NRIP1 / RFU, PTTG1IP / Fold change vs veh, PTTG1IP / RFU, CAPN2 / Fold change vs veh, CAPN2 / RFU, MED14 / Fold change vs veh, MED14 / RFU, SNORA58 / Fold change vs veh, SNORA58 / RFU, C1orf63 / Fold change vs veh, C1orf63 / RFU, LRRFIP1 / Fold change vs veh, LRRFIP1 / RFU, NDUFAF7 / Fold change vs veh, NDUFAF7 / RFU, SLC12A2 / Fold change vs veh, SLC12A2 / RFU, IBTK / Fold change vs veh, IBTK / RFU, ESF1 / Fold change vs veh, ESF1 / Fold change vs veh, TMEM50B / RFU, TAOK1 / Fold change vs veh, TAOK1 / RFU, ACBD3 / Fold change vs veh, ACBD3 / RFU, TMA16 / Fold change vs veh, TMA16 / RFU, RWDD3 / Fold change vs veh, RWDD3 / RFU, BCAT1 / Fold change vs veh, BCAT1 / RFU, EDEM3 / Fold change vs veh, EDEM3 / RFU, TMEM33 / Fold change vs veh, TMEM33 / RFU, WDR75 / Fold change vs veh, WDR75 / RFU, AHCTF1 / Fold change vs veh, AHCTF1 / RFU, TFRC / Fold change vs veh, TFRC / RFU, ZDHHC17 / Fold change vs veh, ZDHHC17 / RFU, NOM1 / Fold change vs veh, NOM1 / RFU, ARL8B / Fold change vs veh, ARL8B / RFU, ZBTB11 / Fold change vs veh, ZBTB11 / RFU, TAMM41 / Fold change vs veh, TAMM41 / RFU, KIAA1704 /// LOC100996395 / Fold change vs veh, KIAA1704 /// LOC100996395 / RFU, ING1 / Fold change vs veh, ING1 / RFU, TRMT61B / Fold change vs veh, TRMT61B / RFU, FUBP3 / Fold change vs veh, FUBP3 / RFU, TP53 / Fold change vs veh, TP53 / RFU, TNKS2 / Fold change vs veh, TNKS2 / RFU, ZFP14 / Fold change vs veh, ZFP14 / RFU, ACTR2 / Fold change vs veh, ACTR2 / RFU, PPP3R1 / Fold change vs veh, PPP3R1 / RFU, PIK3R1 / Fold change vs veh, PIK3R1 / RFU, HNRNPA1 / Fold change vs veh, HNRNPA1 / RFU, RNF170 / Fold change vs veh, RNF170 / RFU, ZNF28 / Fold change vs veh, ZNF28 / RFU, RNGTT / Fold change vs veh, RNGTT / RFU, OGT / Fold change vs veh, OGT / RFU, BRD1 / Fold change vs veh, BRD1 / RFU, MARS / Fold change vs veh, MARS / RFU, ZNF655 / Fold change vs veh, ZNF655 / RFU, FAHD1 / Fold change vs veh, FAHD1 / RFU, BDP1 / Fold change vs veh, BDP1 / RFU, LRRCC1 / Fold change vs veh, LRRCC1 / RFU, ARID1A / Fold change vs veh, ARID1A / RFU, ZNF146 / Fold change vs veh, ZNF146 / RFU, ZNF330 / Fold change vs veh, ZNF330 / RFU, GPN3 / Fold change vs veh, GPN3 / RFU, C9orf123 / Fold change vs veh, C9orf123 / RFU, N4BP2L2 / Fold change vs veh, N4BP2L2 / RFU, ARFIP1 / Fold change vs veh, ARFIP1 / RFU, FAM179B / Fold change vs veh, FAM179B / RFU, BCL10 / Fold change vs veh, BCL10 / RFU, UHRF1BP1L / Fold change vs veh, UHRF1BP1L / RFU, BET1 / Fold change vs veh, BET1 / RFU, CNOT2 / Fold change vs veh, CNOT2 / RFU, ZNF268 / Fold change vs veh, ZNF268 / Fold change vs veh, ZNF507 / RFU, DGCR2 / Fold change vs veh, DGCR2 / RFU, WDSUB1 / Fold change vs veh, WDSUB1 / Fold change vs veh, HSP90B1 /// MIR3652 / RFU, ADSS / Fold change vs veh, ADSS / RFU, GK / Fold change vs veh, GK / RFU, ZNF148 / Fold change vs veh, ZNF148 / RFU, TAF9 / Fold change vs veh, TAF9 / RFU, SLC1A5 / Fold change vs veh, SLC1A5 / RFU, SLMO2 / Fold change vs veh, SLMO2 / RFU, ABCC4 / Fold change vs veh, ABCC4 / RFU, LOC101060439 /// RAP1B / Fold change vs veh, LOC101060439 /// RAP1B / RFU, RFX7 / Fold change vs veh, RFX7 / RFU, GTPBP10 / Fold change vs veh, GTPBP10 / RFU, CNEP1R1 / Fold change vs veh, CNEP1R1 / RFU, BIVM-ERCC5 /// ERCC5 / Fold change vs veh, BIVM-ERCC5 /// ERCC5 / RFU, ILF3 / Fold change vs veh, ILF3 / RFU 11762660_at / Fold change /veh 11762660_at / RFU VCAN (11757783_s_at) / Fold change /veh VCAN (11757783_s_at) / RFU DDX43 (11728927_at) / Fold change /veh DDX43 (11728927_at) / RFU KRT8 (11758188_x_at) / Fold change /veh KRT8 (11758188_x_at) / RFU NKD1 (11759106_at) / Fold change /veh NKD1 (11759106_at) / RFU SRD5A1 (11742802_a_at) / Fold change /veh SRD5A1 (11742802_a_at) / RFU TPSAB1 /// TPSB2 (11721975_s_at) / Fold change /veh TPSAB1 /// TPSB2 (11721975_s_at) / RFU GSTM3 (11746129_a_at) / Fold change /veh GSTM3 (11746129_a_at) / RFU IL23R (11737362_x_at) / Fold change /veh IL23R (11737362_x_at) / RFU TMEM51 (11727254_a_at) / Fold change /veh TMEM51 (11727254_a_at) / RFU PIWIL2 (11732686_x_at) / Fold change /veh PIWIL2 (11732686_x_at) / RFU ORM1 (11744905_x_at) / Fold change /veh ORM1 (11744905_x_at) / RFU CCDC152 (11743942_at) / Fold change /veh CCDC152 (11743942_at) / RFU ECM1 (11717891_a_at) / Fold change /veh ECM1 (11717891_a_at) / RFU IL23R (11748794_a_at) / Fold change /veh IL23R (11748794_a_at) / RFU TNFAIP8L3 (11732012_x_at) / Fold change /veh TNFAIP8L3 (11732012_x_at) / RFU MBOAT4 (11741988_at) / Fold change /veh MBOAT4 (11741988_at) / RFU 11764193_at / Fold change /veh 11764193_at / RFU TMEM53 (11763286_at) / Fold change /veh TMEM53 (11763286_at) / RFU MAGEB2 (11727129_at) / Fold change /veh MAGEB2 (11727129_at) / RFU TMEM200A (11744735_a_at) / Fold change /veh TMEM200A (11744735_a_at) / RFU CCDC152 (11751479_a_at) / Fold change /veh CCDC152 (11751479_a_at) / RFU FAM211A (11726209_a_at) / Fold change /veh FAM211A (11726209_a_at) / RFU RGS16 (11746705_a_at) / Fold change /veh RGS16 (11746705_a_at) / RFU VCAN (11755009_s_at) / Fold change /veh VCAN (11755009_s_at) / RFU RHOB (11743442_s_at) / Fold change /veh RHOB (11743442_s_at) / RFU RGS16 (11720943_a_at) / Fold change /veh RGS16 (11720943_a_at) / RFU RGS16 (11720944_at) / Fold change /veh RGS16 (11720944_at) / RFU, VPS4B / Fold change vs veh, VPS4B / RFU, CREB1 / Fold change vs veh, CREB1 / RFU, DNAJC13 / Fold change vs veh, DNAJC13 / RFU, GNAQ / Fold change vs veh, GNAQ / RFU, CDK5R1 / Fold change vs veh, CDK5R1 / RFU, ZRANB3 / Fold change vs veh, ZRANB3 / RFU, CUL4A / Fold change vs veh, CUL4A / RFU, CCNY / Fold change vs veh, CCNY / RFU, UFL1 / Fold change vs veh, UFL1 / RFU, COG3 / Fold change vs veh, COG3 / RFU, DIAPH2 / Fold change vs veh, DIAPH2 / RFU, SKA2 / Fold change vs veh, SKA2 / RFU, AFF3 / Fold change vs veh, AFF3 / RFU, LMF1 / Fold change vs veh, LMF1 / RFU, IPO11 / Fold change vs veh, IPO11 / RFU, DFFB / Fold change vs veh, DFFB / RFU, FOXP1 / Fold change vs veh, FOXP1 / RFU, CARD8 / Fold change vs veh, CARD8 / RFU, STRN3 / Fold change vs veh, STRN3 / RFU, ADK / Fold change vs veh, ADK / RFU, RASSF2 / Fold change vs veh, RASSF2 / RFU, WIPF1 / Fold change vs veh, WIPF1 / RFU, LARP1B / Fold change vs veh, LARP1B / RFU, RASA1 / Fold change vs veh, RASA1 / RFU, RB1 / Fold change vs veh, RB1 / RFU, PPFIA1 / Fold change vs veh, PPFIA1 / RFU, MAT2A / Fold change vs veh, MAT2A / RFU, CCT5 / Fold change vs veh, CCT5 / RFU, WDR92 / Fold change vs veh, WDR92 / RFU, CUX1 / Fold change vs veh, CUX1 / RFU, TTC7A / Fold change vs veh, TTC7A / RFU, TMEM135 / Fold change vs veh, TMEM135 / RFU, DEPTOR / Fold change vs veh, DEPTOR / RFU, CPM / Fold change vs veh, CPM / RFU, DNAJB6 / Fold change vs veh, DNAJB6 / RFU, CACNA2D3 / Fold change vs veh, CACNA2D3 / RFU, DTX4 / Fold change vs veh, DTX4 / RFU, TFCP2 / Fold change vs veh, TFCP2 / RFU, GMCL1 /// GMCL1P1 / Fold change vs veh, GMCL1 /// GMCL1P1 / RFU, AEBP2 / Fold change vs veh, AEBP2 / RFU, SNHG1 /// SNORD22 /// SNORD25 /// SNORD26 /// SNORD27 /// SNORD28 /// SNORD29 /// SNORD31 / Fold change vs veh, SNHG1 /// SNORD22 /// SNORD25 /// SNORD26 /// SNORD27 /// SNORD28 /// SNORD29 /// SNORD31 / Fold change (Aza/veh), C12orf56 (ProbeSet 11735607_a_at) / Fold change (ACY-1035/veh), C12orf56 (ProbeSet 11735607_a_at) / Fold change (Aza/veh), FGFR1OP (ProbeSet 11751329_s_at) / Fold change (ACY-1035/veh), FGFR1OP (ProbeSet 11751329_s_at) / Fold change (Aza/veh), VPS36 (ProbeSet 11739960_a_at) / Fold change (ACY-1035/veh), VPS36 (ProbeSet 11739960_a_at) / RFU SYPL1 (11715823_x_at) / Fold change /veh SYPL1 (11715823_x_at) / RFU IGFBP7 (11715501_s_at) / Fold change /veh IGFBP7 (11715501_s_at) / RFU REEP3 (11722064_at) / Fold change /veh REEP3 (11722064_at) / RFU IGLL1 (11728026_x_at) / Fold change /veh IGLL1 (11728026_x_at): dose or concentration left out as unconfirmed
Conditions: MV-4-11 cells, 48 hours

In the case of `Nc1ccc(-c2cccs2)cc1NC(=O)c1ccc2c(c1)cc(C1CC1)n2CCN1CCOCC1` [ACY-1035], the “Fold change /veh IGFBP7 (11715501_s_at)” value is reported as 0.33.
